Test results from patent US20070099854A1, “Use of pentadienoic acid derivatives for the treatment of hyperuricemia” (priority 2003, published 2007).

Legend:
[1] = tested on: plasma uric acid concentration; assay: Hypouricemic effect of compound A in healthy male volunteers, single oral administration; type: in vivo, human (healthy male volunteers); conditions: at 24 hours
Procedure: Hypouricemic effect of compound A in healthy male volunteers
Forty-eight healthy male volunteers received orally either EMD or a placebo as a single administration in the morning. Six doses were administered 50 mg, 100 mg, 200 mg, 400 mg, 800 mg and 1200 mg once daily. In each group of dose, 6 subjects received compound A and 2 subjects received a placebo. Plasma uric acid concentrations were assessed in all dose groups.
The drop of plasma uric acid concentration was around 45% for the lowest tested dose (50 mg) and the maximum effect was observed from the 800 mg dose (80%).
FIG. 1: Mean plasma uric acid concentration in each group of dose before and 24 hours after drug intake (single dose) in subjects receiving compound A.

Structure (SMILES) | melting point [°C] | further results
CC(/C=C/C1=Cc2ccccc2OC1)=C\C(=O)O [Example 3b] | 226 to 228 | –
CC(/C=C/C1=Cc2ccccc2OC1(C)C)=C\C(=O)O [Example 4b] | 164 to 166 | –
CC(/C=C/C1=Cc2ccccc2OC1c1ccccc1)=C\C(=O)O (centres unmarked) [Example 14b] | 200 to 202 | –
CC1=C(/C=C/C(C)=C/C(=O)O)COc2ccccc21 [Example 11b] | 216 to 218 | –
CCOC(=O)/C=C(C)/C=C/C1=Cc2ccccc2OC1 [Example 3a] | 110 to 112 | –
COc1ccc2c(c1)C(/C=C/C(C)=C/C(=O)O)=CC(C)(C)CO2 [compound A, (2E,4E)-5-(3,3-dimethyl-7-methoxy-2,3-dihydrobenzoxepin-5-yl)-3-methylpenta-2,4-dienoic acid] | – | drop of plasma uric acid concentration ([1]; 50 mg (lowest tested dose)): around 45%; change in plasma uric acid concentration ([1]; all dose groups 50-1200 mg): dose dependant decrease; drop of plasma uric acid concentration (maximum effect) ([1]; from the 800 mg dose): 80%
CC(/C=C/C1=C(c2ccccc2)c2ccccc2OC1)=C\C(=O)O [Example 7b] | 258 to 260 | –
CC(=C/C(=O)O)/C=C/C1=Cc2ccccc2OC1 [Example 12b] | 224 to 226 | –
CC(=C/C(=O)O)/C=C/C1=Cc2ccccc2OC1(C)C [Example 5b] | 176 | –
